Results on two compounds are retold here after PMC8213057, “Targeting ALK2: An Open Science Approach to Developing Therapeutics for the Treatment of Diffuse Intrinsic Pontine Glioma” (Journal of Medicinal Chemistry, 2020).

In one test the target is T1, NEK3 (Homo sapiens, UniProt P51956).
T1 sequence (P51956 1-506): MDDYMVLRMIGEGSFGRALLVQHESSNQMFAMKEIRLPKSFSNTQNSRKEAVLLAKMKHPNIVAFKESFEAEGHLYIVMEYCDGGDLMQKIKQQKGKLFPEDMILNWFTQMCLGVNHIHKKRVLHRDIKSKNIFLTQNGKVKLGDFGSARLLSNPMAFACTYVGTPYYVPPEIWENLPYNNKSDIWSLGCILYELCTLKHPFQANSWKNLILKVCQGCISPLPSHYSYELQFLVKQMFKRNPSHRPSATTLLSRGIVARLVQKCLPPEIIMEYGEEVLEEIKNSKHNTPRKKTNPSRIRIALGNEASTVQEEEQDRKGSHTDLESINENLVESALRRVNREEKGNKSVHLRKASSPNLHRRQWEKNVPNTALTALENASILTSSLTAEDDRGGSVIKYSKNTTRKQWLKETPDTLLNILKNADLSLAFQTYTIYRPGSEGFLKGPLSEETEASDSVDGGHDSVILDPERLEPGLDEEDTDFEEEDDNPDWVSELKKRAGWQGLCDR
Conditions: 1 μM; Run 1, Run 2.

Another test concerns the target CLK3 (Homo sapiens, UniProt P49761). Conditions: 1 μM; Run 1, Run 2.
Another test addresses T2, DDR2 (Homo sapiens, UniProt Q16832).
T2 sequence (Q16832 22-855): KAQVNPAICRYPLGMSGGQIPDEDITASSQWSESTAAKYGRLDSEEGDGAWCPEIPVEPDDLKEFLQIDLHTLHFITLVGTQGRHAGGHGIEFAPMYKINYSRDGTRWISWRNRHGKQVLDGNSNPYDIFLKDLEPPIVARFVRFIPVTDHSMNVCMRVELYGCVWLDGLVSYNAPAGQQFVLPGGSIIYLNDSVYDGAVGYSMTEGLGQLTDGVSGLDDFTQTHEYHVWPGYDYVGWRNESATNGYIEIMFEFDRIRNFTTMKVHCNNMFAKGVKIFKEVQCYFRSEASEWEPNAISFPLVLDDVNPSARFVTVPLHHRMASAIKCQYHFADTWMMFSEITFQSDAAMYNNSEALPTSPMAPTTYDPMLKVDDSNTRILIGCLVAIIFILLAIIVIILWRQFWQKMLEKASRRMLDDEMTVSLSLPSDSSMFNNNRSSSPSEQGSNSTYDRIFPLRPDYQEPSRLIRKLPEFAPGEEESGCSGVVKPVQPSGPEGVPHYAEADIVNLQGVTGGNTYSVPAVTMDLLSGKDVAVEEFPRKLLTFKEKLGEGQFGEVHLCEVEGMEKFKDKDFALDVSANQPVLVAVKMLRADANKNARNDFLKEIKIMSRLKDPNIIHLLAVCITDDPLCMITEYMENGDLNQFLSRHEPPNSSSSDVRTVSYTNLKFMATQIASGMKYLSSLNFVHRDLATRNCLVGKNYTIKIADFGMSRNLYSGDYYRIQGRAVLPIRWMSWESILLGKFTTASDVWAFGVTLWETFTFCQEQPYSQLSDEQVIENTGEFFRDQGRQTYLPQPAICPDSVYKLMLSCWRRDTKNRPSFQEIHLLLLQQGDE
The test is described as follows: biochemical. Conditions: read-out: % enzyme activity, 1 μM; Run 1, Run 2.

The target in the next test is PKN2/PRK2 (Homo sapiens, UniProt Q16513). Briefly: biochemical. Conditions: read-out: % enzyme activity, 1 μM; Run 1, Run 2.
Sequence of PKN2/PRK2 (Q16513 whole entry): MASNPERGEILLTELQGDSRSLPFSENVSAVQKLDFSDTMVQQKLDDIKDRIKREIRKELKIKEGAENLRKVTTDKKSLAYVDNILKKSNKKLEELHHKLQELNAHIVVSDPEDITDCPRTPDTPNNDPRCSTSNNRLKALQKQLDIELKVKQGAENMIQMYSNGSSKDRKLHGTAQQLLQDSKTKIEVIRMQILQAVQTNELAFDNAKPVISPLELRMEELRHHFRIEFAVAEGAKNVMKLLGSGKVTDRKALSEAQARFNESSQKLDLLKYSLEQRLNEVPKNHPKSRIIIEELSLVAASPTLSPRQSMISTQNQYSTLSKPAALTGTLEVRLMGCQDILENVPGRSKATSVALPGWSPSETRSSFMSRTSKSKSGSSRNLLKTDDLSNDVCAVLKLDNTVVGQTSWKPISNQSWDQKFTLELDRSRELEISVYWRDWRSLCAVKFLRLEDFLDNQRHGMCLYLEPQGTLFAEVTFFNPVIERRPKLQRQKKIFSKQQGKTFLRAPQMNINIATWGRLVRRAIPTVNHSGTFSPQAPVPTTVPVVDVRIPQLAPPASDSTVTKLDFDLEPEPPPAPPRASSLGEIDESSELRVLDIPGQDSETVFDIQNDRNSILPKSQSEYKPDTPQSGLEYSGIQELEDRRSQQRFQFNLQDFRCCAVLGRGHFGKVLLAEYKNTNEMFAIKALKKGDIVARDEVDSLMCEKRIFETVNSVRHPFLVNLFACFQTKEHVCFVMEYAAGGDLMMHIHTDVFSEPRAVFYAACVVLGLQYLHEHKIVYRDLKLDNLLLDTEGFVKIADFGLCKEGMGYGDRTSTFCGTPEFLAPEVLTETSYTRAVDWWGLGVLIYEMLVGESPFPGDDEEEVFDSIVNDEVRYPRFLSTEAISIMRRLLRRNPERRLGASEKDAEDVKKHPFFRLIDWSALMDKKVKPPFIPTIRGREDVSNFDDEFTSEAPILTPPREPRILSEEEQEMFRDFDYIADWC
The next test addresses T3, IKKb/IKBKB (Homo sapiens, UniProt O14920).
T3 sequence (O14920 1-756): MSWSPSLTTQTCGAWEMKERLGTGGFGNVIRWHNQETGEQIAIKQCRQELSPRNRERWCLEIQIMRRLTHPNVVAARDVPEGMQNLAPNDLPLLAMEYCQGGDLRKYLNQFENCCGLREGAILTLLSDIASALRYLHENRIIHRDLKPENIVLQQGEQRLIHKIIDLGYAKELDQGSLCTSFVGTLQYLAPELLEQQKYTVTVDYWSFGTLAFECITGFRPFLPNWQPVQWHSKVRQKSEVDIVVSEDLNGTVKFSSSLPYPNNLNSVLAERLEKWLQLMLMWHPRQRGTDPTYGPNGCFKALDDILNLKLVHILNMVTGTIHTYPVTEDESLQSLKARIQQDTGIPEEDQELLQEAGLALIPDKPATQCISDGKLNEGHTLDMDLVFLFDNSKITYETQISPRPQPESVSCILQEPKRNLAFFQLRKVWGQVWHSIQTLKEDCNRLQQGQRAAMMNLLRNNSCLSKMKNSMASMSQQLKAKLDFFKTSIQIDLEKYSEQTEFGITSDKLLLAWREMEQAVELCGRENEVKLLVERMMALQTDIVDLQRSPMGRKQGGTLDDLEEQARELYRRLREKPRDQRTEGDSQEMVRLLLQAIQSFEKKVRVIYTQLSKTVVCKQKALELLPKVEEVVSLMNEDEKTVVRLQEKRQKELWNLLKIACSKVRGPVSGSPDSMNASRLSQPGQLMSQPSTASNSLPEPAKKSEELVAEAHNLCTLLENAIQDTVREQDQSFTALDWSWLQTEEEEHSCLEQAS
The test is described as follows: biochemical. Conditions: read-out: % enzyme activity, 1 μM; Run 1, Run 2.

The next test addresses DAPK2 (Homo sapiens, UniProt Q9UIK4). Conditions: 1 μM; Run 1, Run 2.
The next test deals with MLK2/MAP3K10 (Homo sapiens, UniProt Q02779). The test is described as follows: biochemical. Conditions: read-out: % enzyme activity, 1 μM; Run 1, Run 2.
Sequence of MLK2/MAP3K10 (Q02779 whole entry): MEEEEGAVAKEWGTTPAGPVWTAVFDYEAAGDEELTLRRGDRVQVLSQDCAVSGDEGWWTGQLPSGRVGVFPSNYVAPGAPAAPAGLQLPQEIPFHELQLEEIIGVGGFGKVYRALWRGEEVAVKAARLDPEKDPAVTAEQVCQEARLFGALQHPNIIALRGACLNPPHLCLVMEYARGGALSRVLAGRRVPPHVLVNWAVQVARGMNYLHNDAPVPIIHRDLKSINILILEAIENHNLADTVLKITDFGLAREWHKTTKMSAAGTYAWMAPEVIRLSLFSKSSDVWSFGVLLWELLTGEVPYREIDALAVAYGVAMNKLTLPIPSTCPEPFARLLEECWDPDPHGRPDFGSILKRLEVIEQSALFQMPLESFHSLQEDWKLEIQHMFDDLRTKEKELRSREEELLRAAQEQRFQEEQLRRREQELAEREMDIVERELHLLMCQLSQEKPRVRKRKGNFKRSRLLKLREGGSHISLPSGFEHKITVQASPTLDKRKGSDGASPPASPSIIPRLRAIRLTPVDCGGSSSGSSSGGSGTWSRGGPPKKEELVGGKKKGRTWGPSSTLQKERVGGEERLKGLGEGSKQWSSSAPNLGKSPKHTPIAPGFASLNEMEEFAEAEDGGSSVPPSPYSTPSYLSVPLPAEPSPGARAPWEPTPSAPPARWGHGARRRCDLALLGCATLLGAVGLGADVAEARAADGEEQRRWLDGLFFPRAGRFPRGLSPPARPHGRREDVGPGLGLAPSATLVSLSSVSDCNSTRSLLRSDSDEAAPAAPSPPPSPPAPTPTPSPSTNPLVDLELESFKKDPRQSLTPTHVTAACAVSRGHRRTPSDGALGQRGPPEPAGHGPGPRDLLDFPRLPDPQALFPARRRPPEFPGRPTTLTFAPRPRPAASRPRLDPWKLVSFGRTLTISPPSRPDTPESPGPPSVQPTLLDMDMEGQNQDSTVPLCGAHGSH
The next test has as its target FRK/PTK5 (Homo sapiens, UniProt P42685). Conditions: 1 μM; Run 1, Run 2.
The next test addresses FGFR3 (Homo sapiens, UniProt P22607). Briefly: biochemical. Conditions: read-out: % enzyme activity, 1 μM; Run 1, Run 2.
Another test has as its target ERK2/MAPK1 (Homo sapiens, UniProt P28482). The test is described as follows: biochemical. Conditions: read-out: % enzyme activity, 1 μM; Run 1, Run 2.
In the next test the target is CAMKK1 (Homo sapiens, UniProt Q8N5S9). Briefly: biochemical. Conditions: read-out: % enzyme activity, 1 μM; Run 1, Run 2.
Sequence of CAMKK1 (Q8N5S9 whole entry): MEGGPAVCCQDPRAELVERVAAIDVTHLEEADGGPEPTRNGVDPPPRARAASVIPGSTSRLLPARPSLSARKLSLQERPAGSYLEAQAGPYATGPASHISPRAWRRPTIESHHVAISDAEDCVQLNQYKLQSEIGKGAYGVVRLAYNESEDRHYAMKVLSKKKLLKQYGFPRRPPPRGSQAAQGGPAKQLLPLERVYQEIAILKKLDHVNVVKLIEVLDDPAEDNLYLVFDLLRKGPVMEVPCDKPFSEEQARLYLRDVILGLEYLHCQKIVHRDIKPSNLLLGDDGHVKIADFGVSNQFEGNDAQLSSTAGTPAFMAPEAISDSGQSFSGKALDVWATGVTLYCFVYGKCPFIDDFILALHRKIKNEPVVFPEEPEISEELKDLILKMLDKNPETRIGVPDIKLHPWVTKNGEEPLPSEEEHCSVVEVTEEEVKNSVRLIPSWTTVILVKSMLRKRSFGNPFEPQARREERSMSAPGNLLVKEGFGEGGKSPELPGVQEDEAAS

Sequence of FRK/PTK5 (P42685 whole entry): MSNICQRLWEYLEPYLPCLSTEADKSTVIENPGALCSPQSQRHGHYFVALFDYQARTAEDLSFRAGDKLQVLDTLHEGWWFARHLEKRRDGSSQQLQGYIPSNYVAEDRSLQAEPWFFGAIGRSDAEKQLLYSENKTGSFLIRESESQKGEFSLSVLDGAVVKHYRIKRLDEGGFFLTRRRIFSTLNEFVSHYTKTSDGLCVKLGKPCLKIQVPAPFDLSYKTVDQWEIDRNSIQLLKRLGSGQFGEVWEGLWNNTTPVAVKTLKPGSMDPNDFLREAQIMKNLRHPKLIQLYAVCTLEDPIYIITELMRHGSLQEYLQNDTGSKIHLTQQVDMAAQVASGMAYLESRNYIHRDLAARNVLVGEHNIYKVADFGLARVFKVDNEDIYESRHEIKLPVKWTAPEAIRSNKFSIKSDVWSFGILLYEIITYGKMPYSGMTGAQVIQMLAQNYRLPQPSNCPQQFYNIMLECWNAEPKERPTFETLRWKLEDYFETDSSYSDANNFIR
Sequence of CLK3 (P49761 whole entry): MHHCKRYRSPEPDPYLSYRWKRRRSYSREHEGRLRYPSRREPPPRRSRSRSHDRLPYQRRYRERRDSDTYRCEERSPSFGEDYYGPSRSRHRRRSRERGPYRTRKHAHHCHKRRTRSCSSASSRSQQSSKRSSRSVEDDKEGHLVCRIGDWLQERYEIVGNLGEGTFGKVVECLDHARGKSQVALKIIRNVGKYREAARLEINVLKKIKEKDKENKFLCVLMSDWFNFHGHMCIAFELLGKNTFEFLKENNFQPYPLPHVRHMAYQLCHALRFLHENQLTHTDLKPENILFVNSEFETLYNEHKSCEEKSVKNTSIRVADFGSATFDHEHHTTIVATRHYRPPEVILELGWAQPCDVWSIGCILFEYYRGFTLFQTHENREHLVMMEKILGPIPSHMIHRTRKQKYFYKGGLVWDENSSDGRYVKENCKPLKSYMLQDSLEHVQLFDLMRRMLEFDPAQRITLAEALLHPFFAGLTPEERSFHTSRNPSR
Sequence of FGFR3 (P22607 23-806): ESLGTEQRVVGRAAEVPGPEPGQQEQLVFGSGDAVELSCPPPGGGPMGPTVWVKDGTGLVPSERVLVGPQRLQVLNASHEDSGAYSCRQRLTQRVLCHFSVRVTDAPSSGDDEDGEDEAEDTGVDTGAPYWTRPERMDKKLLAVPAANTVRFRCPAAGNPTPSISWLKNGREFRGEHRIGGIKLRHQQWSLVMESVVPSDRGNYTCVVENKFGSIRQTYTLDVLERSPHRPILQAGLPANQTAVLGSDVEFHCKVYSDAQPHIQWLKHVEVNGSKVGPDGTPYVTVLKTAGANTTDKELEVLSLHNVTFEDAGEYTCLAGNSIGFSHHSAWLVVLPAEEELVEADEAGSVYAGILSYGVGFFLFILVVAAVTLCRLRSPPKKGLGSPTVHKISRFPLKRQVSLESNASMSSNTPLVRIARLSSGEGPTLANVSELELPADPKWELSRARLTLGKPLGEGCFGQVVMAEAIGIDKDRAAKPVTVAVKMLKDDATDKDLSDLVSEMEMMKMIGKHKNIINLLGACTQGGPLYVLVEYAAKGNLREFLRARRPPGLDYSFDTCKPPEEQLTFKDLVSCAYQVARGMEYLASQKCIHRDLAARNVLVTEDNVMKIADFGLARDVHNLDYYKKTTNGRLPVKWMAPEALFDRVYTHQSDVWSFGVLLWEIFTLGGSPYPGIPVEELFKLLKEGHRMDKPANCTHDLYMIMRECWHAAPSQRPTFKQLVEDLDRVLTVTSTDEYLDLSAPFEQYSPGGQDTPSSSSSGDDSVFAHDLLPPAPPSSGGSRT
Sequence of DAPK2 (Q9UIK4 whole entry): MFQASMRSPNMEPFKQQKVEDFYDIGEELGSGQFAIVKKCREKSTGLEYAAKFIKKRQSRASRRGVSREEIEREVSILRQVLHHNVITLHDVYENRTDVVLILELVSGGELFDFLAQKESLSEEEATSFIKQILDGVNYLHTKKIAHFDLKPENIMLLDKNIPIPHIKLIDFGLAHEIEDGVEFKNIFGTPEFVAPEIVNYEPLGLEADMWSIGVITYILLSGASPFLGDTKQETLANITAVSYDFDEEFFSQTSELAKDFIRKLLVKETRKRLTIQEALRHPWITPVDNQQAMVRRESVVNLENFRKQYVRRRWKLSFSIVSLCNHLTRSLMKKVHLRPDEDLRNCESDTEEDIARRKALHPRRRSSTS
Sequence of ERK2/MAPK1 (P28482 whole entry): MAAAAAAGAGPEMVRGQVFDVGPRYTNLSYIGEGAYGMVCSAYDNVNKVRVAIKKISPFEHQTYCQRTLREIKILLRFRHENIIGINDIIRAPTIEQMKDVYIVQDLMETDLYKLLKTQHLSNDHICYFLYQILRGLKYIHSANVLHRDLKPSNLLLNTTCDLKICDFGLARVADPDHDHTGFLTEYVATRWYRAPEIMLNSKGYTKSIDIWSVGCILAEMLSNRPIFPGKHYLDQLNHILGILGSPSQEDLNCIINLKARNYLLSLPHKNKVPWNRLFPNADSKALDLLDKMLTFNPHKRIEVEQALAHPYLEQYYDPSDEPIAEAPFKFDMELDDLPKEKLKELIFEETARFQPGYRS

Regarding `COc1cc(-c2cncc(-c3ccc(N4CCN(C)CC4)cc3)c2C)cc(F)c1C(N)=O` [Compound 26a, 2-Fluoro-6-methoxy-4-(4-methyl-5-(4-(4-methylpiperazin-1-yl)phenyl)pyridin-3-yl)benzamide], the “% enzyme activity” value on NEK3 came out at 86.84%; at CLK3, 99.59%; at DAPK2, 101.48%; at FRK/PTK5 it was 95.48%. Further, the remaining activity at 1 µM was determined as 100% on DDR2; 94.5% at PKN2/PRK2; 104% on IKKb/IKBKB; 86.4% at MLK2/MAP3K10; 101% at FGFR3; 92.5% at ERK2/MAPK1. The remaining activity at 1 µM at CAMKK1 was found to be 94.7%.
With `COc1cc(-c2cncc(-c3ccc(N4C[C@@H](C)N(C)[C@@H](C)C4)cc3)c2C)cc(F)c1C(N)=O` [Compound 26c, 2-Fluoro-6-methoxy-4-(4-methyl-5-(4-((3R,5S)-3,4,5-trimethylpiperazin-1-yl)phenyl)pyridin-3-yl)benzamide], the “% enzyme activity” value on NEK3 was 94.54%; on CLK3, 86.89%; on DAPK2 it was 95.98%; at FRK/PTK5, 95.52%. In addition, the remaining activity at 1 µM on DDR2 was found to be 92.7%; at PKN2/PRK2 it was 95.9%; at IKKb/IKBKB, 101%; on MLK2/MAP3K10 it was 98.5%; on FGFR3, 103%; at ERK2/MAPK1 it was 89.8%. The remaining activity at 1 µM at CAMKK1 was 94%.
